Measurements: US20230382924A1, “MODULATORS OF CYSTIC FIBROSIS TRANSMEMBRANE CONDUCTANCE REGULATOR” (VERTEX PHARMACEUTICALS INCORPORATED, priority 2020, published 2023)
Where two headings read alike, the source gives them in different places.

Target: CFTR (Homo sapiens, UniProt P13569)
Test: Membrane Potential Dye, Enteroid Assay A
Format: cell-based
Conditions: for EC50: read-out: Ent. A EC50
Procedure: Base medium (ADF+++) consisted of Advanced DMEM/Ham's F12, 2 mM Glutamax, 10 mM HEPES, […] penicillin/streptomycin.
Bath 1 Buffer consisted of 1 mM MgCl2, 160 mM NaCl, 4.5 mM KCl, 10 mM HEPES, 10 mM Glucose, 2 mM CaCl2).
Chloride Free Buffer consisted of 1 mM Magnesium Gluconate, 2 mM Calcium Gluconate, 4.5 mM Potassium Gluconate, 160 mM Sodium Gluconate, 10 mM HEPES, 10 mM Glucose.
Bath 1 Dye Solution consisted of Bath 1 Buffer, 0.04% Pluronic F127, 20 μM Methyl Oxonol, 30 μM CaCCinh-A01, 30 μM Chicago Sky Blue.
Chloride Free Dye Solution consisted of Chloride Free Buffer, 0.04% Pluronic F127, 20 μM Methyl Oxonol, 30 μM CaCCinh-A01, 30 μM Chicago Sky Blue.
3. Enteroid Cell Harvesting and Seeding
Cells were recovered in cell recovery solution, collected by centrifugation at 650 rpm for 5 min at 4° C., resuspended in TryPLE and incubated for 5 min at 37° C. Cells were then collected by centrifugation at 650 rpm for 5 min at 4° C. and resuspended in IEMM containing 10 μM ROCK inhibitor (RI).
4. Membrane Potential Dye, Enteroid Assay A
Briefly, cells were washed 5 times in Bath 1 Buffer. Bath 1 Dye Solution was added, and the cells were incubated for 25 min at room temperature. Following dye incubation, cells were washed 3 times in Chloride Free Dye Solution. Chloride transport was initiated by addition of Chloride Free Dye Stimulation Solution and the fluorescence signal was read for 15 min. […] Chloride transport was then expressed as a percentage of the chloride transport following treatment with 3 μM N-[(6-amino-2-pyridyl)sulfonyl]-6-(3-fluoro-5-isobutoxy-phenyl)-2-[(4S)-2,2,4-trimethylpyrrolidin-1-yl]pyridine-3-carboxamide, 3 μM (R)-1-(2,2-difluorobenzo[d][1,3]dioxol-5-yl)-N-(1-(2,3-dihydroxypropyl)-6-fluoro-2-(1-hydroxy-2-methylpropan-2-yl)-1H-indol-5-yl)cyclopropanecarboxamide and 300 nM acute N-[2,4-bis(1,1-dimethylethyl)-5-hydroxyphenyl]-1,4-dihydro-4-oxoquinoline-3-carboxamide triple combination control (% Activity).

Chain of CFTR (P13569 with tags, fused parts or gaps DEL508-508): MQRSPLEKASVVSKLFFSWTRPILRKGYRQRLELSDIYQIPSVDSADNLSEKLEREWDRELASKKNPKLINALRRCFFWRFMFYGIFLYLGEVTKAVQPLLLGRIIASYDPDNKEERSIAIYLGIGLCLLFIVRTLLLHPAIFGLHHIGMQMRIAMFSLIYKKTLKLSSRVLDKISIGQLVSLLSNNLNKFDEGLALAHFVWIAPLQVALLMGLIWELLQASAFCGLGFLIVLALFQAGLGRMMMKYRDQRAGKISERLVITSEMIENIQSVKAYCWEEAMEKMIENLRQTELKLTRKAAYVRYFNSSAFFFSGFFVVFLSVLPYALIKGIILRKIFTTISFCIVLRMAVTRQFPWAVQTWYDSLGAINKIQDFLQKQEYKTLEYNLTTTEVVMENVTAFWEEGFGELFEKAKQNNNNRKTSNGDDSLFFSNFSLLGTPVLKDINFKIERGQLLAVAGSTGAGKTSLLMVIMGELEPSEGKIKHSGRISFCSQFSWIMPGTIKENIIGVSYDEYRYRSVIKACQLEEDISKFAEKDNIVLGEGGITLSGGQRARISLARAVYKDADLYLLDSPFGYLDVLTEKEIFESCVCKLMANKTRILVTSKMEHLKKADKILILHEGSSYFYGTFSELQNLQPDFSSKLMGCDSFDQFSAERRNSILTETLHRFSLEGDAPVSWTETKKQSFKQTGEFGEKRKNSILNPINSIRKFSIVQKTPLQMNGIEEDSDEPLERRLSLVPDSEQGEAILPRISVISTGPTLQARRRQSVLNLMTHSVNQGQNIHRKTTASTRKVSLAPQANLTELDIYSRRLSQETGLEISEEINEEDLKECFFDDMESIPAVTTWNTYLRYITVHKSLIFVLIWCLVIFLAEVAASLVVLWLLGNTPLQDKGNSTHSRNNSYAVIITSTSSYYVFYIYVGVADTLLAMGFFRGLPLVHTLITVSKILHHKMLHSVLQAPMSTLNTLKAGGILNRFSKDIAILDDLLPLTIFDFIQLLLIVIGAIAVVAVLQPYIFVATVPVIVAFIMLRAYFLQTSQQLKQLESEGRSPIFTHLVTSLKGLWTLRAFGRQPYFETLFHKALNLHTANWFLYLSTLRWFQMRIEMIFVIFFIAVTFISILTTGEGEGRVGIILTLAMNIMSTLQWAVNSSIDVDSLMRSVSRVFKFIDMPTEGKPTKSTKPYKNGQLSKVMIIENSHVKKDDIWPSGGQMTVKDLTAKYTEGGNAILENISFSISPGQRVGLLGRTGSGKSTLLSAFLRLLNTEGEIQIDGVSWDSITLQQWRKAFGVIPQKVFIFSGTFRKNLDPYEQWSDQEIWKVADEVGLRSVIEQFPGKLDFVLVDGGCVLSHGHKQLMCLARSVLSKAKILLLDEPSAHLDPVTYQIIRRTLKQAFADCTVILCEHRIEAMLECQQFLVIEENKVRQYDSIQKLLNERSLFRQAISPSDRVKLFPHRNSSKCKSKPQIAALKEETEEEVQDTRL

Row | SMILES | Ent. A Max Activity (Table 9) | EC50 (Table 9) | further results
1 | Cc1cccc(C)c1-c1cc2nc(n1)NS(=O)(=O)c1cccc(c1)C(=O)NCC(c1ccc(Br)cc1)O2 (racemic) [Compound 18, 10-(4-Bromophenyl)-6-(2,6-dimethylphenyl)-2,2-dioxo-9-oxa-2λ^6-thia-3,5,12,19-tetrazatricyclo[12.3.1.14,8]nonadeca-1(18),4(19),5,7,14,16-hexaen-13-one] | – | – | Ent. A Max Activity (Table 8): +++ (+++ is >60%); EC50 (Table 8): < 1000 nM
2 | Cc1cccc(C)c1-c1cc2nc(n1)NS(=O)(=O)c1cccc(c1)C(=O)NC[C@@H](c1ccc(C(C)(C)C)cn1)O2 (single isomer, unassigned) [Compound 8, 10-(5-tert-butyl-2-pyridyl)-6-(2,6-dimethylphenyl)-2,2-dioxo-9-oxa-2λ^6-thia-3,5,12,19-tetrazatricyclo[12.3.1.14,8]nonadeca-1(18),4(19),5,7,14,16-hexaen-13-one] | – | – | Ent. A Max Activity (Table 8): + (+ is <30%)
3 | Cc1cccc(C)c1-c1cc2nc(n1)NS(=O)(=O)c1cccc(c1)C(=O)NCC(c1ccc(C3(C(F)(F)F)CC3)cc1)O2 (single isomer, unassigned) [Compound 10, 6-(2,6-dimethylphenyl)-2,2-dioxo-10-[4-[1-(trifluoromethyl)cyclopropyl]phenyl]-9-oxa-2λ^6-thia-3,5,12,19-tetrazatricyclo[12.3.1.14,8]nonadeca-1(18),4(19),5,7,14,16-hexaen-13-one] | – | – | EC50 (Table 8): < 1000 nM
4 | Cc1cccc(C)c1-c1cc2nc(n1)NS(=O)(=O)c1cccc(c1)C(=O)NCC(c1ccc(C3CCC3)cc1)O2 (single isomer, unassigned) [Compound 13, 10-(4-Cyclobutylphenyl)-6-(2,6-dimethylphenyl)-2,2-dioxo-9-oxa-2λ^6-thia-3,5,12,19-tetrazatricyclo[12.3.1.14,8]nonadeca-1(18),4(19),5,7,14,16-hexaen-13-one] | + (+ is <30%) | < 1000 nM | –
5 | Cc1cccc(C)c1-c1cc2nc(n1)NS(=O)(=O)c1cccc(c1)C(=O)NCC(c1ccc(C3CCC3)cc1)O2 (single isomer, unassigned) [Compound 14, 10-(4-cyclobutylphenyl)-6-(2,6-dimethylphenyl)-2,2-dioxo-9-oxa-2λ^6-thia-3,5,12,19-tetrazatricyclo[12.3.1.14,8]nonadeca-1(18),4(19),5,7,14,16-hexaen-13-one] | +++ (+++ is >60%) | < 1000 nM | –
6 | Cc1cccc(C)c1-c1cc2nc(n1)NS(=O)(=O)c1cccc(c1)C(=O)NCC(c1ccc([Si](C)(C)C)cc1)O2 (single isomer, unassigned) [Compound 16, 6-(2,6-Dimethylphenyl)-2,2-dioxo-10-(4-trimethylsilylphenyl)-9-oxa-2λ^6-thia-3,5,12,19-tetrazatricyclo[12.3.1.14,8]nonadeca-1(18),4(19),5,7,14,16-hexaen-13-one] | – | < 1000 nM | –
7 | Cc1cccc(C)c1-c1cc2nc(n1)NS(=O)(=O)c1cccc(c1)C(=O)NCC(c1ccc(Br)cc1)O2 (single isomer, unassigned) [Compound 19, 10-(4-bromophenyl)-6-(2,6-dimethylphenyl)-2,2-dioxo-9-oxa-2λ^6-thia-3,5,12,19-tetrazatricyclo[12.3.1.14,8]nonadeca-1(18),4(19),5,7,14,16-hexaen-13-one] | – | – | Ent. A Max Activity (Table 8): + (+ is <30%)
8 | Cc1cccc(C)c1-c1cc2nc(n1)NS(=O)(=O)c1cccc(c1)C(=O)NCC(c1ccc(Br)cc1)O2 (single isomer, unassigned) [Compound 20, 10-(4-bromophenyl)-6-(2,6-dimethylphenyl)-2,2-dioxo-9-oxa-2λ^6-thia-3,5,12,19-tetrazatricyclo[12.3.1.14,8]nonadeca-1(18),4(19),5,7,14,16-hexaen-13-one] | – | – | EC50 (Table 8): < 1000 nM
9 | Cc1cccc(C)c1-c1cc2nc(n1)NS(=O)(=O)c1cccc(c1)C(=O)N[C@@H](CCC(C)(C)C)CO2 (single isomer, unassigned) [Compound 48] | – | – | Ent. A Max Activity (Table 8): + (+ is <30%); EC50 (Table 8): < 1000 nM
10 | Cc1cccc(C)c1-c1cc2nc(n1)NS(=O)(=O)[C@H]1CC[C@H]1C(=O)N[C@H](CC(C)C)CO2 (single isomer, unassigned) [Compound 71] | + (+ is <30%) | – | –
11 | Cc1cccc(C)c1-c1cc2nc(n1)NS(=O)(=O)[C@H]1CC[C@H]1C(=O)N[C@H](CC(C)C)CO2 (single isomer, unassigned) [Compound 72] | + (+ is <30%) | – | –
12 | Cc1cccc(C)c1-c1cc2nc(n1)NS(=O)(=O)c1cccc(c1)C(=O)NC1CC(CN(CCC(C)(C)C)C1)O2 (single isomer, unassigned) [Compound 79, 5-(3,3-dimethylbutyl)-19-(2,6-dimethylphenyl)-2-oxa-15λ^6-thia-5,8,16,18,21-pentaazatetracyclo[15.3.1.13,7.110,14]tricosa-1(20),10,12,14(22),17(21),18-hexaene-9,15,15-trione] | – | – | Ent. A Max Activity (Enteroid Assay A): ++ (++ is 30-60%); EC50 (Enteroid Assay A): < 1000 nM
13 | Cc1cccc(C)c1-c1cc2nc(n1)NS(=O)(=O)c1cccc(c1)C(=O)NC1CC(CN(CCC(C)(C)C)C1)O2 (single isomer, unassigned) [Compound 80, 5-(3,3-Dimethylbutyl)-19-(2,6-dimethylphenyl)-2-oxa-15λ^6-thia-5,8,16,18,21-pentaazatetracyclo[15.3.1.13,7.110,14]tricosa-1(20),10,12,14(22),17(21),18-hexaene-9,15,15-trione] | – | – | Ent. A Max Activity (Enteroid Assay A): ++ (++ is 30-60%); EC50 (Enteroid Assay A): 1000 to 3000 nM

Now from value to compound, other results behind:

Row | Ent. A Max Activity (Table 9) | EC50 (Table 9) | SMILES | further results
14 | +++ (+++ is >60%) | 1000 to 3000 nM | Cc1cccc(C)c1-c1cc2nc(n1)NS(=O)(=O)c1cccc(c1)C(=O)N[C@@H]1CCN(C(=O)OC(C)(C)C)C[C@H]1O2 (single isomer, unassigned) [Compound 87, tert-butyl 20-(2,6-dimethylphenyl)-10,16,16-trioxo-2-oxa-16λ^6-thia-5,9,17,19,22-pentaazatetracyclo[16.3.1.111,15.03,8]tricosa-1(21),11(23),12,14,18(22),19-hexaene-5-carboxylate] | –
15 | + (+ is <30%) | – | Cc1cccc(C)c1-c1cc2nc(n1)NS(=O)(=O)c1cccc(c1)C(=O)N[C@@H]1CCN(C(=O)OC(C)(C)C)C[C@H]1O2 (single isomer, unassigned) [Compound 88, tert-Butyl 20-(2,6-dimethylphenyl)-10,16,16-trioxo-2-oxa-16λ^6-thia-5,9,17,19,22-pentaazatetracyclo[16.3.1.111,15.03,8]tricosa-1(21),11(23),12,14,18(22),19-hexaene-5-carboxylate] | –
16 | + (+ is <30%) | – | Cc1cccc(C)c1-c1cc2nc(n1)NS(=O)(=O)c1cccc(c1)C(=O)N[C@@H]1CCN(CCC(C)(C)C)C[C@H]1O2 (single isomer, unassigned) [Compound 89, 5-(3,3-Dimethylbutyl)-20-(2,6-dimethylphenyl)-2-oxa-16λ^6-thia-5,9,17,19,22-pentaazatetracyclo[16.3.1.111,15.03,8]tricosa-1(21),11(23),12,14,18(22),19-hexaene-10,16,16-trione] | –
17 | +++ (+++ is >60%) | 1000 to 3000 nM | Cc1cccc(C)c1-c1cc2nc(n1)NS(=O)(=O)c1cccc(c1)C(=O)N[C@H]1CCN(CCC(C)(C)C)C[C@H]1O2 (single isomer, unassigned) [Compound 90, 5-(3,3-dimethylbutyl)-20-(2,6-dimethylphenyl)-2-oxa-16λ^6-thia-5,9,17,19,22-pentaazatetracyclo[16.3.1.111,15.03,8]tricosa-1(21),11(23),12,14,18(22),19-hexaene-10,16,16-trione] | –
18 | +++ (+++ is >60%) | < 1000 nM | Cc1cccc(C)c1-c1cc2nc(n1)NS(=O)(=O)c1cccc(c1)C(=O)N[C@@H]1CCN(Cc3ccc(C(C)(C)C)cc3)C[C@@H]1O2 (single isomer, unassigned) [Compound 91, 5-[(4-tert-butylphenyl)methyl]-20-(2,6-dimethylphenyl)-2-oxa-16λ^6-thia-5,9,17,19,22-pentaazatetracyclo[16.3.1.111,15.03,8]tricosa-1(21),11(23),12,14,18(22),19-hexaene-10,16,16-trione] | –
19 | ++ (++ is 30-60%) | 3000 to 30000 nM | Cc1cccc(C)c1-c1cc2nc(n1)NS(=O)(=O)c1cccc(c1)C(=O)N[C@@H](CC(F)(F)F)CO2 (single isomer, unassigned) [Compound 93, 6-(2,6-dimethylphenyl)-11-(2,2,2-trifluoroethyl)-9-oxa-2λ^6-thia-3,5,12,19-tetraazatricyclo[12.3.1.14,8]nonadeca-1(17),4(19),5,7,14(18),15-hexaene-2,2,13-trione] | –
